Measurements taken from US20050271643A1, “Bacterial strains, compositions including same and probiotic use thereof” (priority 2003, published 2005).
Where two headings read alike, the source gives them in different places.

Tests used:
B. licheniformis PA = assay: Antibiogram by disc diffusion method; assay type: cell-based, Bacillus licheniformis
B. subtilis HE = assay: Antibiogram by disc diffusion method; assay type: cell-based, Bacillus subtilis; conditions: for Zone of inhibition: 6 mm antibiotic discs, Mueller-Hinton plates, 18 hours at 37° C., strain B. subtilis HE
[1] = 6 mm antibiotic discs, Mueller-Hinton plates, 18 hours at 37° C., strain B. licheniformis PA

Compound	Zone of inhibition (B. licheniformis PA; [1]) [mm]	Zone of inhibition (B. subtilis HE) [mm]	Sensitivity or resistance of the strain to the antibiotic (in words) (B. licheniformis PA; strain B. licheniformis PA)	Sensitivity or resistance of the strain to the antibiotic (in words) (B. subtilis HE)	Zone of inhibition (B. licheniformis PA) [mm]
CO[C@@]1(NC(=O)C(C(=O)O)c2ccc(O)cc2)C(=O)N2C(C(=O)O)=C(CSc3nnnn3C)CO[C@@H]21 (stereo partly shown) [Moxalactam]	12 ± 0.3	12 ± 0.3			
CC1(C)S[C@@H]2[C@H](NC(=O)[C@H](C(=O)O)c3ccsc3)C(=O)N2[C@H]1C(=O)O [Ticarcillin]	20 ± 0.1	24 ± 0.4	sensitive	sensitive	
Cn1nnnc1SCC1=C(C(=O)O)N2C(=O)[C@@H](NC(=O)[C@H](O)c3ccccc3)[C@H]2SC1 [Cefamandol]	16 ± 0.1	37 ± 0.1			
CC(=O)OCC1=C(C(=O)O)N2C(=O)[C@@H](NC(=O)Cc3cccs3)[C@H]2SC1 [Cephalothin]	20 ± 0.4	32 ± 0.5			
NCC[C@H](O)C(=O)N[C@@H]1C[C@H](N)[C@@H](O[C@H]2O[C@H](CN)[C@@H](O)[C@H](O)[C@H]2O)[C@H](O)[C@H]1O[C@H]1O[C@H](CO)[C@@H](O)[C@H](N)[C@H]1O [Amikacin]	18 ± 0.1	20 ± 0.2			
COc1cccc(OC)c1C(=O)N[C@@H]1C(=O)N2[C@@H]1SC(C)(C)[C@@H]2C(=O)O [Methicillin]	0	18 ± 0.1	resistant	sensitive	
NC[C@H]1O[C@H](O[C@H]2[C@H](O)[C@@H](O[C@H]3O[C@H](CO)[C@@H](O)[C@H](N)[C@H]3O)[C@H](N)C[C@@H]2N)[C@H](N)C[C@@H]1O [Tobramycin]	20 ± 0.2	24 ± 0.3			
CC1(C)S[C@@H]2[C@H](NC(=O)[C@H](N)c3ccc(O)cc3)C(=O)N2[C@H]1C(=O)O [Amoxicillin]	16 ± 0.1	18 ± 0.1			
O=C1CN(/N=C/c2ccc([N+](=O)[O-])o2)C(=O)N1 [Nitrofurantoin]	18 ± 0.1	16 ± 0.2			
CN(C)[C@@H]1C(O)=C(C(N)=O)C(=O)[C@@]2(O)C(O)=C3C(=O)c4c(O)cccc4[C@@](C)(O)[C@H]3C[C@@H]12 [Tetracycline]		24 ± 0.3			24 ± 0.2
CCN1CCN(C(=O)N[C@@H](C(=O)N[C@@H]2C(=O)N3[C@@H]2SC(C)(C)[C@@H]3C(=O)O)c2ccccc2)C(=O)C1=O [Piperacillin]	12 ± 0.1	18 ± 0.3			
Gentamycin	20 ± 0.1	24 ± 0.2			
CC(C)(O/N=C(\C(=O)N[C@@H]1C(=O)N2C(C(=O)[O-])=C(C[n+]3ccccc3)CS[C@H]12)c1csc(N)n1)C(=O)O [Ceftazidim]	0	8 ± 0.2		sensitive	
Bactrim	30 ± 0.1	30 ± 0.2			
O=C(N[C@H](CO)[C@H](O)c1ccc([N+](=O)[O-])cc1)C(Cl)Cl [Chloramphenicol]	10 ± 0.1	16 ± 0.2			
CCn1cc(C(=O)O)c(=O)c2cc(F)c(N3CCNCC3)cc21 [Norfloxacin]	24 ± 0.2	24 ± 0.2			
C[C@@H](O)[C@H]1C(=O)N2C(C(=O)O)=C(SCCN=CN)C[C@H]12 [Imipenem]	32 ± 0.3	36 ± 0.4			
CCN1CCN(C(=O)N[C@@H](C(=O)N[C@@H]2C(=O)N3C(C(=O)O)=C(CSc4nnnn4C)CS[C@H]23)c2ccc(O)cc2)C(=O)C1=O [Cefoperazon]	12 ± 0.2	16 ± 0.1			

Compound	Zone of inhibition (B. licheniformis PA; [1]) [mm]	Zone of inhibition (B. subtilis HE) [mm]	Sensitivity or resistance of the strain to the antibiotic (in words) (B. licheniformis PA; strain B. licheniformis PA)	Sensitivity or resistance of the strain to the antibiotic (in words) (B. subtilis HE)	Zone of inhibition (B. licheniformis PA) [mm]
CC1(C)S[C@@H]2[C@H](NC(=O)Cc3ccccc3)C(=O)N2[C@H]1C(=O)O [Benzylpenicillin]	0	8 ± 0.1		sensitive	
Polymyxin E	0	10 ± 0.1		sensitive	
CC1(C)S[C@@H]2[C@H](NC(=O)[C@H](NC(=O)N3CCN(S(C)(=O)=O)C3=O)c3ccccc3)C(=O)N2[C@H]1C(=O)O [Mezlocillin]	17 ± 0.2	20 ± 0.3			
CC1(C)S[C@@H]2[C@H](NC(=O)C(C(=O)O)c3ccccc3)C(=O)N2[C@H]1C(=O)O (stereo partly shown) [Carbenicillin]	18 ± 0.3	24 ± 0.4	sensitive	sensitive	
Cc1onc(-c2ccccc2)c1C(=O)N[C@@H]1C(=O)N2[C@@H]1SC(C)(C)[C@@H]2C(=O)O [Oxacillin]	0	14 ± 0.3		sensitive	
CN[C@H](CC(C)C)C(=O)N[C@H]1C(=O)N[C@@H](CC(N)=O)C(=O)N[C@H]2C(=O)N[C@H]3C(=O)N[C@H](C(=O)N[C@H](C(=O)O)c4cc(O)cc(O)c4-c4cc3ccc4O)[C@H](O)c3ccc(c(Cl)c3)Oc3cc2cc(c3O[C@@H]2O[C@H](CO)[C@@H](O)[C@H](O)[C@H]2O[C@H]2C[C@](C)(N)[C@H](O)[C@H](C)O2)Oc2ccc(cc2Cl)[C@H]1O [Vancomycin]		12 ± 0.1			12 ± 0.1
COc1cc(Cc2cnc(N)nc2N)cc(OC)c1OC [Trimethoprim]	24 ± 0.1	24 ± 0.1			
CO/N=C(\C(=O)N[C@@H]1C(=O)N2C(C(=O)O)=CCS[C@H]12)c1csc(N)n1 [Ceftizoxim]	0	0			
CC1(C)S[C@@H]2[C@H](NC(=O)[C@H](NC(=O)N3CCNC3=O)c3ccccc3)C(=O)N2[C@H]1C(=O)O [Azlocillin]	16 ± 0.1	18 ± 0.2			
NC[C@H]1O[C@H](O[C@H]2[C@H](O)[C@@H](O[C@H]3O[C@H](CO)[C@@H](O)[C@H](N)[C@H]3O)[C@H](N)C[C@@H]2N)[C@H](O)[C@@H](O)[C@@H]1O [Kanamycin]	20 ± 0.1	23 ± 0.1			
CO/N=C(\C(=O)N[C@@H]1C(=O)N2C(C(=O)O)=C(COC(C)=O)CS[C@H]12)c1csc(N)n1 [Cefotaxim]	10 ± 0.2	14 ± 0.2			
CC1(C)S[C@@H]2[C@H](NC(=O)[C@H](N)c3ccccc3)C(=O)N2[C@H]1C(=O)O [Ampicillin]	0	10 ± 0.3	resistant	sensitive	
C[C@H]1[C@H](NC(=O)/C(=N\OC(C)(C)C(=O)O)c2csc(N)n2)C(=O)N1S(=O)(=O)O [Aztreonam]	0	0		resistant	
CO/N=C(\C(=O)N[C@@H]1C(=O)N2C(C(=O)O)=C(COC(N)=O)CS[C@H]12)c1ccco1 [Cefuroxim]	0	0	resistant	resistant	
CCC[C@@H]1C[C@@H](C(=O)N[C@@H]([C@H]2O[C@H](SC)[C@H](O)[C@@H](O)[C@H]2O)[C@H](C)Cl)N(C)C1 [Clindamycin]	0	10 ± 0.3			
CO/N=C(\C(=O)N[C@@H]1C(=O)N2C(C(=O)O)=C(CSc3nc(=O)c(=O)[nH]n3C)CS[C@H]12)c1csc(N)n1 [Ceftriaxon]	12 ± 0.2	18 ± 0.3			
CO[C@@]1(NC(=O)Cc2cccs2)C(=O)N2C(C(=O)O)=C(COC(N)=O)CS[C@@H]21 [Cefoxitin]	12 ± 0.3	16 ± 0.3			
